Results: patent publication US9073961B2, “Substitution derivatives of N6 -benzyladenosine-5′-monophosphate, methods of preparation thereof, use thereof as medicaments, and therapeutic preparations containing these compounds” (UNIVERZITA PALACKEHO V OLOMOUCI, priority 2010, dated 2015)

Legend:
[1] = system: HOS (human osteogenic sarcoma); assay: Calcein AM cytotoxicity assay, HOS; assay type: cell-based; conditions: 72 hours incubation
Outline: (§1)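 24 h preincubation, 37 °C/5% CO2; cpd added at t0, six 3-fold dilns, max 166.7 μM, triplicate; 72 h exposure; Calcein AM 1 μg/ml final, 1 h; fluorescence read. GI50 from dose-response (50% drop in esterase activity).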

[2] = system: K-562 (human erythroleukemia); assay: Calcein AM cytotoxicity assay, K-562; assay type: cell-based; conditions: 72 hours incubation
Outline: as §1

[3] = system: MCF-7 (breast carcinoma); assay: Calcein AM cytotoxicity assay, MCF7; assay type: cell-based; conditions: 72 hours incubation
Outline: as §1

[4] = system: Normal human fibroblasts BJ; assay: Calcein AM cytotoxicity assay, BJ; assay type: cell-based; conditions: 72 hours incubation
Outline: as §1

[5] = system: G-361 (human malignant melanoma); assay: Calcein AM cytotoxicity assay, G-361; assay type: cell-based; conditions: 72 hours incubation
Outline: as §1

[6] = system: CEM (T-lymphoblastoid leukemia); assay: Calcein AM cytotoxicity assay, CEM; assay type: cell-based
Outline: as §1

[7] = system: HL-60 (promyelocytic leukemia); assay: Calcein AM cytotoxicity assay, HL60; assay type: cell-based, human; conditions: 72 hours incubation
Outline: as §1

[8] = system: caspase-3; assay: Activity of caspase-3 in CEM cells (Apo-ONE kit); assay type: cell-based; conditions: 10 μM, 12 and 24 hours
Description: In the course of apoptosis, caspase cascade is activated. Caspase-3 is an effector caspase that plays a role in the induction of some changes typical for apoptosis (chromatin condensation, DNA fragmentation).
Leukemia cell line CEM was cultured in cell culture medium (DMEM containing 5 g/l glucose, 2 mM glutamine, 100 U/ml peniciline, 100 μg/ml streptomycine, 10% fetal calf serum and sodium bicarbonate). 24 hours before treatment, cell suspensions were centrifuged, diluted to concentration of 500000 cells per ml with fresh medium and pipetted in 50 µL aliquotes into 96-well plate. After 12 and 24 hours of incubation with the test compound, the activity of caspase-3 was measured using commercial kit (Apo-ONE, Promega) that is based on quantification of hydrolysis of fluorogenic substrate Z-DEVD-R110 (excitation 480 nm/emission 520 nm). Reaction specifity was confirmed in a control experiment, when both test compound and caspase-3 inhibitor Ac-DEVD-CHO were added. All experiments were done in triplicate.

O=P(O)(O)OC[C@H]1O[C@@H](n2cnc3c(NCc4ccccc4O)ncnc32)[C@H](O)[C@@H]1O [Compound 21, 6-(2-hydroxybenzylamino)purine riboside-5′-monophosphate]
GI50 [1]: 2.5 µM | GI50 [2]: 4 µM | GI50 [3]: 10.5 µM | GI50 [4]: 43.2 µM | GI50 [5]: 13.5 µM | GI50 ([6]; 72 hours incubation, Calcein AM): 1.3 µM | IC50 ([6]; FIG. 2 legend): 1.3 µM | GI50 [7]: 0.48 µM | activation of caspase-3 [8]: activates caspase-3
